Assay in all cases: Nanosyn kinase profiling
What all share (type): biochemical
Holding throughout (settings): read-out: Percentage inhibition; for inhibition at 0.1 µM: 0.1 µM inhibitor; for inhibition at 1 µM: 1 µM inhibitor

Assay [1] addresses T1, CAMK2δ (Homo sapiens, UniProt Q13557).
T1 construct: purchased Nanosyn (enzymatic panel); SGC in-house recombinant human kinases (DSF panel); Invitrogen (ALK1-6)
The procedure, abridged: (§1)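 Percent inhibition of each kinase was measured with the inhibitor at 0.1 µM and at 1 µM, as part of a 200-kinase human selectivity panel.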

The target in assay [2] is T2, RSK1 (Homo sapiens, UniProt Q15418).
T2 construct: purchased Nanosyn (enzymatic panel); SGC in-house recombinant human kinases (DSF panel); Invitrogen (ALK1-6)
T2 sequence (Q15418 whole entry): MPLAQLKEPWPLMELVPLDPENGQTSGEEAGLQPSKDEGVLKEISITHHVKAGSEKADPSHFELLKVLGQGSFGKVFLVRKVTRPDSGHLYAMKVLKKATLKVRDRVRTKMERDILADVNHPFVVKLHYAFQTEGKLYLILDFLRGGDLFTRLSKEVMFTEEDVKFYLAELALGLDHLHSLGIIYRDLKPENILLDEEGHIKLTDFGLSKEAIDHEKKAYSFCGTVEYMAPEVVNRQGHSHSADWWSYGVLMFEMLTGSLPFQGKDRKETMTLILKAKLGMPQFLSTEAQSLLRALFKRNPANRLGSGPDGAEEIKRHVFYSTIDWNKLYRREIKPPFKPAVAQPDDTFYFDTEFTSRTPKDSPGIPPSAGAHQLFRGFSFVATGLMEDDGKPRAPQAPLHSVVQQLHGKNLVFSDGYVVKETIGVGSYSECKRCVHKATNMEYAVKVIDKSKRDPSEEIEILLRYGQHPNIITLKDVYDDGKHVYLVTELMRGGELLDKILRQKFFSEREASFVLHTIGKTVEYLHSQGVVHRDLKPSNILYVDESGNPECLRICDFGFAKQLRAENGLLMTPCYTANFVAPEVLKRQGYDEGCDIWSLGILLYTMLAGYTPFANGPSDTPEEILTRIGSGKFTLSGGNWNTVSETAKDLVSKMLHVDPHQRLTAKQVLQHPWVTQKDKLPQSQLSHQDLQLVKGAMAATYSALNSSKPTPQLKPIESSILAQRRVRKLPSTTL
The procedure, abridged:
as §1

Assay [3] has as its target T3, AURKA (Homo sapiens, UniProt O14965).
T3 construct: purchased Nanosyn (enzymatic panel); SGC in-house recombinant human kinases (DSF panel); Invitrogen (ALK1-6)
T3 sequence (O14965 1-403): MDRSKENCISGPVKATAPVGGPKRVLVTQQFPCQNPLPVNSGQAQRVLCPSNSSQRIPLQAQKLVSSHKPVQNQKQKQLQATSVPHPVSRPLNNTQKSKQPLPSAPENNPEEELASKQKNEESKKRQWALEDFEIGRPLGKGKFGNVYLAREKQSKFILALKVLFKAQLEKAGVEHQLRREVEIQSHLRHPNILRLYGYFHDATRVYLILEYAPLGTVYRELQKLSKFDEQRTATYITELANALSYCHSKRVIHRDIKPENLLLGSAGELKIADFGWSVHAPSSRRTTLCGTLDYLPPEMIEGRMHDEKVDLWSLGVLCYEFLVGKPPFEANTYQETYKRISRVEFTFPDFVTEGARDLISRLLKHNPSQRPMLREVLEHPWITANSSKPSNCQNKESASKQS
The procedure, abridged:
as §1

Assay [4] has as its target T4, FGR (Homo sapiens, UniProt P09769).
T4 construct: purchased Nanosyn (enzymatic panel); SGC in-house recombinant human kinases (DSF panel); Invitrogen (ALK1-6)
In short, it runs like this: as §1

The target of assay [5] is T5, PKCη (Homo sapiens, UniProt P24723).
T5 construct: purchased Nanosyn (enzymatic panel); SGC in-house recombinant human kinases (DSF panel); Invitrogen (ALK1-6)
In short, it runs like this:
as §1

The target of assay [6] is T6, EPHA3 (Homo sapiens, UniProt P29320).
T6 construct: purchased Nanosyn (enzymatic panel); SGC in-house recombinant human kinases (DSF panel); Invitrogen (ALK1-6)
T6 sequence (P29320 21-983): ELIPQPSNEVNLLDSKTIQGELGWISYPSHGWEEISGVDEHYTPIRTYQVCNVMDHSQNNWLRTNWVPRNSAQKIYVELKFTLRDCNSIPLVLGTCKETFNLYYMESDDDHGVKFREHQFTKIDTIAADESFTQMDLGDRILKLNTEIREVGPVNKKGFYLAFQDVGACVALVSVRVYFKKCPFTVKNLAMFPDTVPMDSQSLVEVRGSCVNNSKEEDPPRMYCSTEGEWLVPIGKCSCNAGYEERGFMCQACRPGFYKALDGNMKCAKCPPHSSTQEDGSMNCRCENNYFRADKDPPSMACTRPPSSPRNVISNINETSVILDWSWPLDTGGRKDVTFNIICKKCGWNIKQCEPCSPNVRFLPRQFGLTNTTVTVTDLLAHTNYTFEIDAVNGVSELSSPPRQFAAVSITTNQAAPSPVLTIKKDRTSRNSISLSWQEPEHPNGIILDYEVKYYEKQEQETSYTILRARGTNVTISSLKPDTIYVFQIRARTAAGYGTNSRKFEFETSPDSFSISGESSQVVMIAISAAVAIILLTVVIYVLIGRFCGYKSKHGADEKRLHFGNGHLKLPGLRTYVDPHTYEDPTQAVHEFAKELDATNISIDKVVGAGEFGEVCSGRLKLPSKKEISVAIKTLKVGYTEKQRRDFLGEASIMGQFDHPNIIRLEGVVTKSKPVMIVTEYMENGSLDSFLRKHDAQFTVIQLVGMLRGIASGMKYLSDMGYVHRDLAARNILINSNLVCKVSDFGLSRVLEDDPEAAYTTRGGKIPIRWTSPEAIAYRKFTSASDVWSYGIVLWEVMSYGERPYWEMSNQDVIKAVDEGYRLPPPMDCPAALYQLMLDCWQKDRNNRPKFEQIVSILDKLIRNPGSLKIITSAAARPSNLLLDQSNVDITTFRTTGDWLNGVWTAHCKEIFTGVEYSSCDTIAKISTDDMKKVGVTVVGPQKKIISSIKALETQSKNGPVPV
In short, it runs like this: as §1

Assay [7] has as its target T7, TRKA (Homo sapiens, UniProt P04629).
T7 construct: purchased Nanosyn (enzymatic panel); SGC in-house recombinant human kinases (DSF panel); Invitrogen (ALK1-6)
In short, it runs like this:
as §1

Assay [8] has as its target T8, MARK4 (Homo sapiens, UniProt Q96L34).
T8 construct: purchased Nanosyn (enzymatic panel); SGC in-house recombinant human kinases (DSF panel); Invitrogen (ALK1-6)
T8 sequence (Q96L34 1-752): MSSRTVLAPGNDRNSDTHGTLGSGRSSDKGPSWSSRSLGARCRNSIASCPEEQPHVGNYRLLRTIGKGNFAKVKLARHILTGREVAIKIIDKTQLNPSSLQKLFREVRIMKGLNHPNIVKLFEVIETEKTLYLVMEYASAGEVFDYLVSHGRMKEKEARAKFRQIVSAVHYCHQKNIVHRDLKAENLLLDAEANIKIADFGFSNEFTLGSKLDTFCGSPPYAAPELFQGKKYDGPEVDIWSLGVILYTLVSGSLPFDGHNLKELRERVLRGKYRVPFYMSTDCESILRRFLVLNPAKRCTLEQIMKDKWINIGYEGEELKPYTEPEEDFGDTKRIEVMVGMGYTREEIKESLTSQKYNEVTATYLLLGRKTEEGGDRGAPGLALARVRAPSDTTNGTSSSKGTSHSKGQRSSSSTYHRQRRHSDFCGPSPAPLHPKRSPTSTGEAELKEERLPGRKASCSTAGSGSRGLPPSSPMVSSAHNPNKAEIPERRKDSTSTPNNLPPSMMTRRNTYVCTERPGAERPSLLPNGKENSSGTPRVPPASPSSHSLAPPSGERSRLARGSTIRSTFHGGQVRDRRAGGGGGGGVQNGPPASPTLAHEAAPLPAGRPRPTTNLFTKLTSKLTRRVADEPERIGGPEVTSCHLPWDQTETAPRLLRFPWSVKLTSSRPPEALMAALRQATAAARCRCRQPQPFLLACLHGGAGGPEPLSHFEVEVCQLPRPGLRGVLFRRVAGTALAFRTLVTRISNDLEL
The procedure, abridged: as §1

In assay [9] the target is T9, FLT1 (Homo sapiens, UniProt P17948).
T9 construct: purchased Nanosyn (enzymatic panel); SGC in-house recombinant human kinases (DSF panel); Invitrogen (ALK1-6)
T9 sequence (P17948 27-1338): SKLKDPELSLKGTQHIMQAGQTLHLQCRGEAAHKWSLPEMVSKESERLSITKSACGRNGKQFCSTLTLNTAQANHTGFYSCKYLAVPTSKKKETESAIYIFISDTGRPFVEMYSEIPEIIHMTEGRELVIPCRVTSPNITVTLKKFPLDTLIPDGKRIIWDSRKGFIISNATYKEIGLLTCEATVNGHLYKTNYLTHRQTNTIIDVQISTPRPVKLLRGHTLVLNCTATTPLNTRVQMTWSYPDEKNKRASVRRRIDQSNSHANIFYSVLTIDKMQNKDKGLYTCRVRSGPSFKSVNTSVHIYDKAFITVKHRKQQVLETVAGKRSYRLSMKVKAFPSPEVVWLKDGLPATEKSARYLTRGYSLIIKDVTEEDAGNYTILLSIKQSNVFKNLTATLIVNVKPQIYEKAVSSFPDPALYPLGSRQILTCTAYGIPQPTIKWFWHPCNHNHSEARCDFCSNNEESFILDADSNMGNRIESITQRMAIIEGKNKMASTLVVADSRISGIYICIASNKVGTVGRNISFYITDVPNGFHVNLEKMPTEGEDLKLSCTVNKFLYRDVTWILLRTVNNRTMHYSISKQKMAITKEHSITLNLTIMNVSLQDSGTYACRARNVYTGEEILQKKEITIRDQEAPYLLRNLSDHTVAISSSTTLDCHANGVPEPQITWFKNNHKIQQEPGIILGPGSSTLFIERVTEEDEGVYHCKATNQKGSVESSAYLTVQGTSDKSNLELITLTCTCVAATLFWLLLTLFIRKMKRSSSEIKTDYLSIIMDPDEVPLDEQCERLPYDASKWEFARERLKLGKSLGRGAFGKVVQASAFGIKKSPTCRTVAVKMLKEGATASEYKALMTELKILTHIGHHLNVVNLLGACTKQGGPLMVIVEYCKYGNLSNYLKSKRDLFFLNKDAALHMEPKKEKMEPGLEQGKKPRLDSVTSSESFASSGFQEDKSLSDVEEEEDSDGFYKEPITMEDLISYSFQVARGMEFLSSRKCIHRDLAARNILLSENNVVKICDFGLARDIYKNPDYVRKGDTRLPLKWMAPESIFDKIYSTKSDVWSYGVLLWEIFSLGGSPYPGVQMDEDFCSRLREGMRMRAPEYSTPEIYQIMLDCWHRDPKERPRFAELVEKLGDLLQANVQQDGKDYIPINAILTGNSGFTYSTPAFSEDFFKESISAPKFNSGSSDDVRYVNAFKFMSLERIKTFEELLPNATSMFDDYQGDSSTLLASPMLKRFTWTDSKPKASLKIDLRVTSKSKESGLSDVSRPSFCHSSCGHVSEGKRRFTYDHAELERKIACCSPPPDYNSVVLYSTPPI
The procedure, abridged: as §1

Assay [10] addresses T10, ERBB2 (Homo sapiens, UniProt P04626).
T10 construct: purchased Nanosyn (enzymatic panel); SGC in-house recombinant human kinases (DSF panel); Invitrogen (ALK1-6)
In short, it runs like this:
as §1

The structures appear in SMILES notation.

T7 sequence (P04629 33-796): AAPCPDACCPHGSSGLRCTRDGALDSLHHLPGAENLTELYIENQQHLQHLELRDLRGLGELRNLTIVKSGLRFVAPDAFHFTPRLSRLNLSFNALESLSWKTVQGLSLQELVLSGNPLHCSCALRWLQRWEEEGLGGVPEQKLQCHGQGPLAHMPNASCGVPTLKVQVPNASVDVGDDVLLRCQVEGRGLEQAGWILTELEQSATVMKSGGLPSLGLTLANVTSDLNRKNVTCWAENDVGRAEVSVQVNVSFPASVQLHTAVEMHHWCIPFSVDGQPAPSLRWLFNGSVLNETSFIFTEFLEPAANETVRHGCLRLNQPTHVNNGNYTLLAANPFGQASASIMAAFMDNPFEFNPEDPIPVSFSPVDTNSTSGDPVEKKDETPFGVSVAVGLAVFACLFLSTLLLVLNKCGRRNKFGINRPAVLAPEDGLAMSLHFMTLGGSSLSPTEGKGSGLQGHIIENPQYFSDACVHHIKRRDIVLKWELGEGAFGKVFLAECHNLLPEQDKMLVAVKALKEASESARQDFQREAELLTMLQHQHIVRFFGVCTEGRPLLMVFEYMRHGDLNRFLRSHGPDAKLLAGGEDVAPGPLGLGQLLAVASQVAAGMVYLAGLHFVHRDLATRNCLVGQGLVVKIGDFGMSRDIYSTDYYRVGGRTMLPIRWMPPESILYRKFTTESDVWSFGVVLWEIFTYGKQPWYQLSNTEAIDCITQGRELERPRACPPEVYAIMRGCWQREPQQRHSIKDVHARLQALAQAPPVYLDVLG
T4 sequence (P09769 whole entry): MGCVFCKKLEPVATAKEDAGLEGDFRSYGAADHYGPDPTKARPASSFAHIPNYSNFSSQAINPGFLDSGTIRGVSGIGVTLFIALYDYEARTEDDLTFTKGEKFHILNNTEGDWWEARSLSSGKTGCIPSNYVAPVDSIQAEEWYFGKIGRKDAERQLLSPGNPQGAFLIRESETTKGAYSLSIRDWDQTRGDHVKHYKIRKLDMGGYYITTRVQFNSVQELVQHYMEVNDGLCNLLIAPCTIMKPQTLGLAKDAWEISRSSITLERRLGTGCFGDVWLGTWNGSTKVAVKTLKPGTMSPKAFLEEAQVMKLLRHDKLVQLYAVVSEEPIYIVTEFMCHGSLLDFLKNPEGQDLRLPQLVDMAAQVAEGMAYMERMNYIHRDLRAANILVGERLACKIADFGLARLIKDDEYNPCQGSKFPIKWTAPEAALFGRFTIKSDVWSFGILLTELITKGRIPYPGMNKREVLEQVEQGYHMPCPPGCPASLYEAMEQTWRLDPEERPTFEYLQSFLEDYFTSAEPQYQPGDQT
T1 sequence (Q13557 whole entry): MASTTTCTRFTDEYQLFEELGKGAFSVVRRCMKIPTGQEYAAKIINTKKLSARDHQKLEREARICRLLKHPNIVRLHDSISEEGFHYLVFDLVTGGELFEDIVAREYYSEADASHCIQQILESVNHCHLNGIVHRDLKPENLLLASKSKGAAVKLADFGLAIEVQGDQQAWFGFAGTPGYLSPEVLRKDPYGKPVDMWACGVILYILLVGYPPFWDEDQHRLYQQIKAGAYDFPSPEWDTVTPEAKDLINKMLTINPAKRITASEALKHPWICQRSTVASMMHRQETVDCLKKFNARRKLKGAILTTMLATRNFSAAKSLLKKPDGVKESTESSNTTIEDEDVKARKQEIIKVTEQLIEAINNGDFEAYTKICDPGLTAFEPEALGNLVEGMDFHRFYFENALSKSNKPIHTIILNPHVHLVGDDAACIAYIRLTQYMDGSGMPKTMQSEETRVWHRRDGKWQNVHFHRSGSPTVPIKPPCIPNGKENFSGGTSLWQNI
T10 sequence (P04626 23-1255): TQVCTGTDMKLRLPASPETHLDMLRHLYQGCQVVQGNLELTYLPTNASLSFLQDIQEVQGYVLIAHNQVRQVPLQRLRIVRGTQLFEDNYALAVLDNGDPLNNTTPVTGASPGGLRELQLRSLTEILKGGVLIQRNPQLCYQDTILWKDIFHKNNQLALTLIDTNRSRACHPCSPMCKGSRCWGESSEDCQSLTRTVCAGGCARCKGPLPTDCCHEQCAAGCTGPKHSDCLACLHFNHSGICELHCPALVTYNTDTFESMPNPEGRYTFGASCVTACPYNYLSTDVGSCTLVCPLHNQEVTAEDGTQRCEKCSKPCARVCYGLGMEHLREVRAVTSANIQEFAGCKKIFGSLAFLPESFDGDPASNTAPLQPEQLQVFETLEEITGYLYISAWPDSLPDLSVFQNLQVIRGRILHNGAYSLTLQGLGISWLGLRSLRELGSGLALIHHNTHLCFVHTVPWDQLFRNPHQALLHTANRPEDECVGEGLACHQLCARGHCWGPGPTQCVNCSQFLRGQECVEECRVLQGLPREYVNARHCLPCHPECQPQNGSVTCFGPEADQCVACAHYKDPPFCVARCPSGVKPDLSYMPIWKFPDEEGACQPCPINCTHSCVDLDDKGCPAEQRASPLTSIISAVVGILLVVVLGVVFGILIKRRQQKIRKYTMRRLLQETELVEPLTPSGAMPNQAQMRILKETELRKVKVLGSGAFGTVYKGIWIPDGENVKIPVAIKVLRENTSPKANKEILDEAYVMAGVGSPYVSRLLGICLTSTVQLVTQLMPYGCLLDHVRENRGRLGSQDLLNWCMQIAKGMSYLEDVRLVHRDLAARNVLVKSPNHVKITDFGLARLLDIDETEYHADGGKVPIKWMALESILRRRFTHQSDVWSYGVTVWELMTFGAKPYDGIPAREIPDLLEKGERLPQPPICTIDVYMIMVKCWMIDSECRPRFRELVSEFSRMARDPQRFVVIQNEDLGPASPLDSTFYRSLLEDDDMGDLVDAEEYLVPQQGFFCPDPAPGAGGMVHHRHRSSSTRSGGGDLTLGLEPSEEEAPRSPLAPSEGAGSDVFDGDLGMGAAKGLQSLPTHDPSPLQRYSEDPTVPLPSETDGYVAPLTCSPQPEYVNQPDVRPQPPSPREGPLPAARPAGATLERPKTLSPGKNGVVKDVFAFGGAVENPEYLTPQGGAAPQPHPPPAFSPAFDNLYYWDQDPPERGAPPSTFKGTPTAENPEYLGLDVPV

A word on the inhibition: it is the relative decrease from the control value, in per cent. Consider `c1ccc2c(-c3cnn4cc(-c5ccc(N6CCNCC6)cc5)cnc34)ccnc2c1` [LDN-193189], for which the inhibition at 0.1 µM in [1] was found to be 3.1%; in [2] it was 0.6%; in assay [3] it was 4.2%; in [4], 13%; in [5], 2.2%; in assay [6], 2.2%. Besides, the inhibition at 0.1 µM in assay [7] turned out to be 1.9%; in assay [8], 13%; in assay [9], 0%; in assay [10], 2.1%. Moreover, the inhibition at 1 µM in [1] is 8.7%; in assay [2] it was 8%; in [3] it was 23%; in [4], 53%; in assay [5], -2%; in assay [6], 6.3%. Also, the inhibition at 1 µM is 7.2% in assay [7], 61% in assay [8], 17% in [9] and 2.1% in assay [10].

With `COc1cc(-c2cc(-c3cccc(O)c3)cnc2N)cc(OC)c1OC` [K02288, 3-[6-amino-5-(3,4,5-trimethoxy-phenyl)-pyridin-3-yl]-phenol], the inhibition at 0.1 µM in assay [1] was -1%; in [2], 0.8%; in [3], -2%; in assay [4], 6.7%; in assay [5], -2%; in assay [6], -6%. Besides, the inhibition at 0.1 µM in [7] was 1.5%; in [8], 2.4%; in assay [9], 0%; in assay [10] it was -5%. Moreover, the inhibition at 1 µM was 1.4% in assay [1]; 1.8% in [2]; -1% in [3]; 37% in assay [4]; -4% in [5]; 4.3% in [6]. Further, the inhibition at 1 µM is 2.8% in [7], 7.2% in assay [8], -2% in assay [9] and -3% in assay [10].

For the origin of these results see publication PMC3639963, “A New Class of Small Molecule Inhibitor of BMP Signaling” (PLoS ONE, 2013).
